Experimental data reported in EP0017976A2, “Process for preparing imidazole derivatives” (F. HOFFMANN-LA ROCHE & CO. Aktiengesellschaft, priority 1979, dated 1980).

Key:
[1] = tested on: Schistosoma mansoni; test: Schistosomicidal effect: share of living and dead worm pairs in liver vessels of infected mice, treated vs untreated; VD50 by probit method; assay type: in vivo; conditions: mice infected with cercariae of Schistosoma mansoni; qualitative statement only, VD50 not given
Source text: Die schistosomicide Wirkung wurde ermittelt durch Vergleich des prozentualen Anteils lebender und toter Wurmpaare in den Gefässen der Leber sowohl bei mit Cercarien von Schistosoma mansoni infizierten, behandelten Mäusen als auch bei infizierten aber unbehandelten Kontrolltieren. Die Bestimmung der VD50 (Vermicide Dosis 50%: Dosis, die 50% der Wurmpaare abtötet) erfolgte nach der Probitmethode.

[2] = tested on: ventralen Prostata und der Samenblase; test: Antiandrogenic effect: weight decrease of ventral prostate and seminal vesicle in male sterilised rats; assay type: in vivo, Ratten; conditions: qualitative statement only
Source text: Die antiandrogene Wirkung wurde durch Bestimmung der Gewichtsabnahme der ventralen Prostata und der Samenblase von männlichen sterilisierten Ratten ermittelt.

Row | Structure (SMILES) | schistosomicide Wirkung [1] | antiandrogene Wirkung [2]
1 | CC1(C)NC(=O)N(c2ccc(F)c(C(F)(F)F)c2)C1=N [1-(3-Trifluormethyl-4-fluor-phenyl)-5-imino-4,4-dimethyl-2-imidazolidinon] | starken schistosomiciden Wirkung | 
2 | CC1(C)NC(=O)N(c2ccc(F)c(Cl)c2)C1=O [3-(3-Chlor-4-fluor-phenyl)-5,5-dimethylhydantoin] |  | antiandrogen wirksame
3 | CC1(C)NC(=O)N(c2ccc(F)c(C(F)(F)F)c2)C1=O [3-(3-Trifluormethyl-4-fluorphenyl)-5,5-dimethyl-hydantoin] | starken schistosomiciden Wirkung | 
